Measured values: patent US20240415804A1, “METHOD OF TREATING PANCREATIC CANCER” (University of South Florida, priority 2022, published 2024)

System: miR-155
Assay: miR-155 gene expression in tumors of HPC mice
Type: in vivo, mouse
Conditions: API 25 mg/kg IP 3 times per week for 3-4 weeks, vs vehicle
Experimental: Earlier studies have shown the anti-tumor activity of API in pre-clinical experimental models of cancer^41, 62-68. The inventors have reported that API increased survival and reduced tumor growth in a heterotopic (H) mouse model of PC (HPC)^55. To investigate if API targets miR-155 and regulates SHIP-1 in the TME of an HPC mouse model, HPC mice were treated with API at a dose of 25 mg/kg (IP) 3 times per week for 3-4 weeks. […] All female C57BL/6 mice (6-8 weeks of age) described in this study were purchased from Envigo (Indianapolis, IN, USA) and were acclimatize for one week in a pathogen-free animal facility (University of South Florida (USF) vivarium) before injections with PC cells. To generate heterotopic pancreatic cancer (HPC) models, mice were subcutaneously injected with 1.5×10^5 murine Panc02 (HPC mice) or 5×10^6 murine UN-KC-6141 cells (KC-HPC mice), in sterile 1× phosphate buffer saline (PBS), in the lower ventral abdomen, while control (CTRL) mice received sterile 1×PBS. […] Relative expression of miR-155 was calculated using the comparative […] method normalized to a mouse endogenous control gene snoRNA202 and human endogenous control gene U6 (Assay IDs: 001232 and 001093).

## O=c1cc(-c2ccc(O)cc2)oc2cc(O)cc(O)c12 [API, 40,5,7-Trihydroxyflavone, 5,7-Dihydroxy-2-(4-hydroxyphenyl)-4-benzopyrone]
  miR-155 gene expression in tumor: significantly reduced
